In BindingDB's records for patent US20240150287 (Hangzhou Apeloa Medicine Research Institute Co., 2024):

Target: T1, Mucosal addressin cell adhesion molecule 1/Integrin alpha-4/beta-7 (Homo sapiens, UniProt P13612+P26010+Q13477)
T1 sequence (P13612 whole entry): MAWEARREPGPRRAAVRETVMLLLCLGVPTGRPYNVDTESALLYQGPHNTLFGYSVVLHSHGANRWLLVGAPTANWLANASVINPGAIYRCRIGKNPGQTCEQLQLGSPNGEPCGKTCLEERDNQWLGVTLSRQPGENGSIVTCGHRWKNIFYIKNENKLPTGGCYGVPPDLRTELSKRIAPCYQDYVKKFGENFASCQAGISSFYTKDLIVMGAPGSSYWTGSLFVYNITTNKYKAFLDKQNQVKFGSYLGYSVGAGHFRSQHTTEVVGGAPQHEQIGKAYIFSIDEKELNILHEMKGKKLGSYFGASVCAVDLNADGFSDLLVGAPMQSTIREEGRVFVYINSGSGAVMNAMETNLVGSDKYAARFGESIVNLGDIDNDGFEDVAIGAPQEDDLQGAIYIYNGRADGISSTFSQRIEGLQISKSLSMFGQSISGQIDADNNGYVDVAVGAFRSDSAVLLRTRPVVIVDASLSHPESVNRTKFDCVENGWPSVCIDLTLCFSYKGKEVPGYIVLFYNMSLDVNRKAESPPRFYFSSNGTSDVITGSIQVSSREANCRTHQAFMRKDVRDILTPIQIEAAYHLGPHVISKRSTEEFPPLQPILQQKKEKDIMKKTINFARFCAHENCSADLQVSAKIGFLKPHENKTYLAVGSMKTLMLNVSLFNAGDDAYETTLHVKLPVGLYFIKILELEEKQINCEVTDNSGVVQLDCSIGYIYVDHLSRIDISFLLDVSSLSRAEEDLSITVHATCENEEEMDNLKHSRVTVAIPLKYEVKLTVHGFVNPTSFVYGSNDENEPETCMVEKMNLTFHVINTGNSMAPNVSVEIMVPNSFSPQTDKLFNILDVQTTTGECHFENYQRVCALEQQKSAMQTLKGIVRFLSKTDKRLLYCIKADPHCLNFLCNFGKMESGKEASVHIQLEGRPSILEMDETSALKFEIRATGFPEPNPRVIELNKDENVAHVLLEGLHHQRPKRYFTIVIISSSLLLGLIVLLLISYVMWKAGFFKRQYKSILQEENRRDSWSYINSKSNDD
T1 sequence (P26010 whole entry): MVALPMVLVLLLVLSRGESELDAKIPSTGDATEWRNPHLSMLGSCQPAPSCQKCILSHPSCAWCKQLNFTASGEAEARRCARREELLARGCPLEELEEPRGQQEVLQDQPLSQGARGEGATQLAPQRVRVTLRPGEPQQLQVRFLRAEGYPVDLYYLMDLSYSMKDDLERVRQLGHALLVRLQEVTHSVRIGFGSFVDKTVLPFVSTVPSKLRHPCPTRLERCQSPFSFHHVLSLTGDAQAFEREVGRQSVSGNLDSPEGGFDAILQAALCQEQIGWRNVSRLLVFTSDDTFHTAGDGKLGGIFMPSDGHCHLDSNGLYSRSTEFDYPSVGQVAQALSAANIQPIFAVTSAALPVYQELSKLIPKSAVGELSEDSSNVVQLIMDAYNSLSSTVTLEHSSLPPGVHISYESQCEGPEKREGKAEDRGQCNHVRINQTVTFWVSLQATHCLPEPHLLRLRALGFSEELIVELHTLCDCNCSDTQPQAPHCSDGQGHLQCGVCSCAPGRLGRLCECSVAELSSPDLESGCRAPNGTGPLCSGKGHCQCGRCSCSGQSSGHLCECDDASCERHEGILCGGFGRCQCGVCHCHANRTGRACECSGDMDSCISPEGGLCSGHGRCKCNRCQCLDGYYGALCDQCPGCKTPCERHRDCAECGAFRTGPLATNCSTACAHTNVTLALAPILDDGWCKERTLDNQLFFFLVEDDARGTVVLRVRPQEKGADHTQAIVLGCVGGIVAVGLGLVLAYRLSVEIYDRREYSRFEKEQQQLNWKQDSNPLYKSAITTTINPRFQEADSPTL
T1 sequence (Q13477 whole entry): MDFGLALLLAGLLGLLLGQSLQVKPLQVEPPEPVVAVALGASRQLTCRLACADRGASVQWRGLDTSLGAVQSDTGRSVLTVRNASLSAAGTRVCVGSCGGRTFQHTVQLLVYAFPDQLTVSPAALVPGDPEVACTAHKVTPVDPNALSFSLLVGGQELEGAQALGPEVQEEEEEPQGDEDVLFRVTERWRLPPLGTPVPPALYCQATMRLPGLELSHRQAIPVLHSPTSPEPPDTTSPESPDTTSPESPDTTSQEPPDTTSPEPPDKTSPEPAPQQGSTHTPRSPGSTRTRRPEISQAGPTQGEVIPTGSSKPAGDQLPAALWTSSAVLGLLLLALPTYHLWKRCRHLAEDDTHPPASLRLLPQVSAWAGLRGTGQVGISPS
Test: BINDING INHIBITION ACTIVITY EVALUATION TEST
Procedure: Coat the 96-well microplate (Costar) with 50 μL of recombinant human MAdCAM-1 (R&D Systems) solution per well, and incubate overnight (12-18 hours) at 4° C. Wash three times with 150 μL of TBS buffer per well. Block plate with 150 μL per well with blocking buffer for 1 h at 37° C. Wash three times with 150 μL of TBS buffer per well. Dilute the recombinant human integrin α4β7 (R&D Systems) with TBS buffer containing 0.1% bovine serum albumin (BSA), then add to the 96 well plate with 50 μL per well. Add 1 μL of test compound or DMSO, cover, incubate at room temperature for 2 h, wash three times with 150 μL of TBS buffer per well. Dilute the anti-β7 antibody (R&D Systems) with 0.1% BSA TBS buffer, then add to the 96 well plate with 50 μL per well, cover, incubate at room temperature for 1 h, wash three times with 150 μL of TBS buffer per well. Add 50 μL of streptavidin-HRP (R&D Systems) per well, incubate at room temperature for 20 min, wash three times with 150 μL of TBS buffer per well. Add 50 μL of TMB substrate solution (Sigma) per well, incubate at room temperature for 5-30 min, and add 25 μL of stop solution per well to stop the reaction. Finally, measure absorbance at 450 nm with microplate reader (SpectraMax 340PC. Molecular Devices). Repeat the test to find the binding rate […] at each concentration when the absorbance of the well without the test substance is used as 100%, and calculate the concentration IC50 that causes 50% binding inhibition.

Row | IC50 | SMILES
1 | 3.05 nM | COC(=O)[C@H](Cc1ccc(N2C(=O)C3(CC3)c3cc(F)c(N(C)C)cc32)cc1)NC(c1ccccc1)(c1ccccc1)c1ccccc1 [US20240150287, Example 11]
2 | 16.1 nM | COC(=O)[C@H](Cc1ccc(N2C(=O)C3(CCOCC3)c3cccc(Cl)c32)cc1)NC(c1ccccc1)(c1ccccc1)c1ccccc1 [US20240150287, Example 7]
3 | 10.5 nM | COC(=O)[C@H](Cc1ccc(-n2c(=O)n(C)c3c(F)c(F)ccc32)cc1)NC(c1ccccc1)(c1ccccc1)c1ccccc1 [US20240150287, Example 34]
4 | 23.8 nM | COC(=O)[C@H](Cc1ccc(N2C(=O)C3(CC3)c3cccc(Cl)c32)cc1)NC(=O)c1c(Cl)cc(N2CCC(N3CCOCC3)CC2)cc1Cl [US20240150287, Example 21]
